Results as given in patent US20230109839A1, “THERAPEUTIC AGENT FOR TAUOPATHIES” (SUMITOMO PHARMA CO., LTD., priority 2020, published 2023).

Biological target: T1, human Nav1.1 (Homo sapiens, UniProt P35498)
T1 construct: host or cells: HEK293
Test: Amplification of Nav1.1-derived voltage-gated sodium current (Nav1.1 current), automated patch clamp (Test 1)
Type: cell-based
Conditions: HEK293 stably expressing human Nav1.1; for activation at 1 µM: HEK293, concentration for evaluation 1 μM; for activation at 0.3 µM: HEK293, concentration for evaluation 0.3 μM
How it was run: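 Compound-induced change in ramp-evoked sodium current peak and AUC was expressed as 100×post/pre ratio minus 100. Recordings used automated patch clamp in voltage-clamp mode on a stable human Nav1.1 HEK293 line, including only cells above 500 pA. Compounds were delivered in extracellular fluid containing 1% DMSO.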

[1] = concentration for evaluation 1 μM
[2] = concentration for evaluation 50 μM
[3] = read-out: Nav1.1 current amplification rate (%)

Nav1.1 current amplification rate (%) [1]	Structure (SMILES)	other results
111%	CN(c1ncc2cnn(CC(=O)Nc3ccn4ncnc4c3)c2n1)C1CC2(CC2)C1 [Example 802]	
93%	CN(CC1(C)CC1)c1ncc2cnn(CC(=O)Nc3ccn4ncnc4c3)c2n1 [Example 804]	
373%	CC1CC=C(c2ncc3cnn(CC(=O)Nc4ccc5cncnc5c4)c3n2)CC1 (stereo not drawn) [Example 805]	
262%	CC1CCN(c2ncc3cnn(CC(=O)Nc4ccc5cncnc5c4)c3n2)CC1 [Example 806]	
86%	O=C(Cn1ncc2cnc(N3CCC4(CCC4)C3)nc21)Nc1ccc2cncnc2c1 [Example 807]	
226%	O=C(Cn1ncc2cnc(N3CCC4(CCC4)CC3)nc21)Nc1ccc2cncnc2c1 [Example 808]	
	CC1(C)CCN(c2ncc3cnn(CC(=O)Nc4ccc5cncnc5c4)c3n2)CC1 [Example 809]	Nav1.1 current amplification rate (%) (concentration for evaluation 10 μM): 64%
86%	O=C(Cn1ncc2cnc(C3=CCC(F)(F)CC3)nc21)Nc1ccc2cncnc2c1 [Example 810]	
23%	O=C(Cn1ncc2cnc(N3CCC4(CCC4)CC3)nc21)Nc1ccc2ncnn2c1 [Example 811]	
13%	O=C(Cn1ncc2cnc(C3=CCC(F)(F)CC3)nc21)Nc1ccc2ncnn2c1 [Example 812]	
105%	O=C(Cn1ncc2cnc(N3CCC4(CC4)C(F)(F)C3)nc21)Nc1ccc2ncnn2c1 [Example 813]	
87%	CN(c1ncc2cnn(CC(=O)Nc3ccc4ncnn4c3)c2n1)C1CCCC1 [Example 814]	
86%	CC1CCN(c2ncc3cnn(CC(=O)Nc4ccc5ncnn5c4)c3n2)CC1(F)F (stereo not drawn) [Example 815]	
13%	O=C(Cn1ncc2cnc(N3CCC4C(C3)C4(F)F)nc21)Nc1ccc2ncnn2c1 (stereo not drawn) [Example 816]	
21%	CN(c1ncc2cnn(CC(=O)Nc3ccc4ncnn4c3)c2n1)C1CCC1 [Example 817]	
	CN(c1ncc2cnn(CC(=O)Nc3ccc4ncnn4c3)c2n1)C1CC1 [Example 818]	Nav1.1 current amplification rate (%) [2]: 195%
50%	CN(c1ncc2cnn(CC(=O)Nc3ccc4ncnn4c3)c2n1)C1CC2(CC2)C1 [Example 820]	
42%	CN(CC1(C)CC1)c1ncc2cnn(CC(=O)Nc3ccc4ncnn4c3)c2n1 [Example 822]	
226%	N#Cc1ccc(NC(=O)Cn2ncc3cnc(N4CCC5(CC5)C(F)(F)C4)nc32)cn1 [Example 823]	
240%	O=C(Cn1ncc2cnc(N3CCC4(CC4)C(F)(F)C3)nc21)Nc1ccc(-n2ccnc2)nc1 [Example 824]	
30%	COc1ccc(NC(=O)Cn2ncc3cnc(N4CCC5(CC5)C(F)(F)C4)nc32)cn1 [Example 825]	
31%	O=C(Cn1ncc2cnc(N3CCC4(CC4)C(F)(F)C3)nc21)Nc1cccnc1 [Example 826]	
29%	N#Cc1ncc(NC(=O)Cn2ncc3cnc(N4CCC5(CC5)C(F)(F)C4)nc32)cn1 [Example 827]	
108%	N#Cc1cnc(NC(=O)Cn2ncc3cnc(N4CCC5(CC5)C(F)(F)C4)nc32)cn1 [Example 828]	

Nav1.1 current amplification rate (%) [1]	Structure (SMILES)	other results
54%	CC(C)c1ccc(NC(=O)Cn2ncc3cnc(N4CCC5(CC5)C(F)(F)C4)nc32)cn1 [Example 829]	
54%	N#Cc1ccc(NC(=O)Cn2ncc3cnc(N4CCC5(CC5)C(F)(F)C4)nc32)nc1 [Example 830]	
	CC1CCN(c2ncc3cnn(CC(=O)Nc4ccn5ccnc5c4)c3n2)CC1 [Example 831]	activation at 1 µM [3]: 128%
	CC1CC=C(c2ncc3cnn(CC(=O)Nc4ccn5ccnc5c4)c3n2)CC1 (stereo not drawn) [Example 832]	activation at 1 µM [3]: 204%
	CC1CC=C(c2ncc3cnn(CC(=O)NC4=CC5N=COC5C=C4)c3n2)CC1 (stereo not drawn) [Example 833]	activation at 1 µM [3]: 283%
	O=C(Cn1ncc2cnc(N3CCC4(CCC4)C3)nc21)Nc1ccn2ccnc2c1 [Example 834]	activation at 1 µM [3]: 26%
	CC1CCN(c2ncc3cnn(CC(=O)N4CCN(c5cccnc5)CC4)c3n2)CC1 [Example 835]	activation at 50 µM (HEK293, concentration for evaluation 50 μM, read-out: Nav1.1 current amplification rate (%)): 118%
	Cc1cc(NC(=O)Cn2ncc3cnc(N(C)C4CC4)nc32)cc2ncnn12 [Example 836]	activation at 1 µM [3]: 19%
	Cc1cc(NC(=O)Cn2ncc3cnc(N(C)C4CCCC4)nc32)cc2ncnn12 [Example 837]	activation at 1 µM [3]: 103%
	CN(c1ncc2cnn(CC(=O)N3CCc4c(-c5ccnnc5)cccc43)c2n1)C1CC1 [Example 838]	activation at 0.3 µM [3]: 122%
	Cc1cc(NC(=O)Cn2ncc3cnc(N(C)C4CCCC4(F)F)nc32)cc2ncnn12 (stereo not drawn) [Example 839]	activation at 1 µM [3]: 143%
	CN(CC1CCC1)c1ncc2cnn(CC(=O)Nc3ccc(C#N)nc3)c2n1 [Example 840]	activation at 1 µM [3]: 164%
	CN(c1ncc2cnn(CC(=O)Nc3cnc4cccnc4c3)c2n1)C1CC1 [Example 841]	activation at 1 µM [3]: 28%
	CN(c1ncc2cnn(CC(=O)Nc3cnc4cccnc4c3)c2n1)C1CC2(CC2)C1 [Example 842]	activation at 1 µM [3]: 87%
	CC1CCN(c2ncc3cnn(CC(=O)Nc4ccc(C#N)nc4)c3n2)CC1(F)F (stereo not drawn) [Example 843]	activation at 1 µM [3]: 171%
	CN(c1ncc2cnn(CC(=O)Nc3cnc4cccnc4c3)c2n1)C1CC(C)(C)C1 [Example 844]	activation at 1 µM [3]: 221%
	CN(c1ncc2cnn(CC(=O)Nc3ccc(C#N)nc3)c2n1)C1CC2(CC2)C1 [Example 845]	activation at 1 µM [3]: 76%
	CN(CC1CCC1)c1ncc2cnn(CC(=O)Nc3cnc4cccnc4c3)c2n1 [Example 846]	activation at 1 µM [3]: 158%
	CC1CCN(c2ncc3cnn(CC(=O)Nc4cnc(C#N)cn4)c3n2)CC1(F)F (stereo not drawn) [Example 847]	activation at 1 µM [3]: 132%
	CN(c1cnc2cnn(CC(=O)Nc3ccc4ncncc4c3)c2n1)C1CC2(CC2)C1 [Example 848]	activation at 0.3 µM [3]: 22%
	CN(c1ncc2cnn(CC(=O)Nc3cnc4cccnc4c3)c2n1)C1CCCC1 [Example 849]	activation at 0.3 µM [3]: 57%
	CC1CCN(c2ncc3cnn(CC(=O)Nc4ccc(C#N)cn4)c3n2)CC1(F)F (stereo not drawn) [Example 850]	activation at 1 µM [3]: 79%
	CN(CC1(C)CC1)c1ncc2cnn(CC(=O)Nc3cnc4cccnc4c3)c2n1 [Example 851]	activation at 1 µM [3]: 89%
111%	CC1CC=C(c2ccc3cnn(CC(=O)Nc4ccn5ncnc5c4)c3n2)CC1 (stereo not drawn) [Example 852]	

Nav1.1 current amplification rate (%) [1]	Structure (SMILES)	other results
82%	CC1CCN(c2ccc3cnn(CC(=O)Nc4ccn5ncnc5c4)c3n2)CC1 [Example 853]	
45%	O=C(Cn1ncc2ccc(N3CCC4(CCC4)CC3)nc21)Nc1ccn2ncnc2c1 [Example 854]	
93%	O=C(Cn1ncc2ccc(N3CCC4(CC3)CC4)nc21)Nc1ccn2ncnc2c1 [Example 855]	
50%	CC1(C)CCN(c2ccc3cnn(CC(=O)Nc4ccn5ncnc5c4)c3n2)CC1 [Example 856]	
18%	CC1(C)CCN(c2ccc3cnn(CC(=O)Nc4ccn5ncnc5c4)c3n2)C1 [Example 857]	
	CC1(C)CN(c2ccc3cnn(CC(=O)Nc4ccn5ncnc5c4)c3n2)C1 [Example 859]	Nav1.1 current amplification rate (%) [2]: 39%
50%	O=C(Cn1ncc2ccc(C3=CCC(F)(F)CC3)nc21)Nc1ccn2ncnc2c1 [Example 860]	
78%	CC(C)CN(C)c1ccc2cnn(CC(=O)Nc3ccn4ncnc4c3)c2n1 [Example 861]	
97%	CN(c1ccc2cnn(CC(=O)Nc3ccn4ncnc4c3)c2n1)C1CCCC1 [Example 862]	
49%	O=C(Cn1ncc2ccc(N3CCC4(CC4)C(F)(F)C3)nc21)Nc1ccn2ncnc2c1 [Example 863]	
160%	CC1CC=C(c2ccc3cnn(CC(=O)Nc4ccn5ccnc5c4)c3n2)CC1 (stereo not drawn) [Example 864]	
14%	O=C(Cn1ncc2ccc(-c3ccc(F)cc3F)nc21)Nc1ccn2ccnc2c1 [Example 865]	
16%	O=C(Cn1ncc2ccc(-c3ccc(F)cc3)nc21)Nc1ccn2ccnc2c1 [Example 866]	
65%	O=C(Cn1ncc2ccc(C3=CCC(F)(F)CC3)nc21)Nc1ccn2ccnc2c1 [Example 867]	
19%	O=C(Cn1ncc2ccc(C3=CCCCO3)nc21)Nc1ccn2ccnc2c1 [Example 868]	
17%	O=C(Cn1ncc2ccc(C3=COCCC3)nc21)Nc1ccn2ccnc2c1 [Example 869]	
120%	CC1CCN(c2ccc3cnn(CC(=O)Nc4ccn5ccnc5c4)c3n2)CC1 [Example 870]	
10%	O=C(Cn1ncc2ccc(-c3ccc(F)cc3F)nc21)Nc1ccc2ncnn2c1 [Example 871]	
38%	CC1CCN(c2ccc3cnn(CC(=O)Nc4ccc5ncnn5c4)c3n2)CC1 [Example 872]	
89%	CN(CC1CCC1)c1ccc2cnn(CC(=O)Nc3ccc4ncnn4c3)c2n1 [Example 873]	
43%	CN(c1ccc2cnn(CC(=O)Nc3ccc4ncnn4c3)c2n1)C1CCCC1 [Example 875]	
98%	CC1CCN(c2ccc3cnn(CC(=O)Nc4ccc5ocnc5c4)c3n2)CC1 [Example 876]	
263%	CC1CCN(c2ccc3cnn(CC(=O)Nc4ccc5cncnc5c4)c3n2)CC1 [Example 877]	
42%	CC1CCN(c2ccc3cnn(CC(=O)Nc4ccc5cnnn5c4)c3n2)CC1 [Example 878]	
